≈ marks a conversion by molar mass, not a printed value. Read-outs that look alike come from different tables or passages of the source.
How the values were obtained:
CHIKV = CHIKV cytopathic effect (CPE) inhibition test; type: cell-based, Chikungunya virus (CHIKV, strain Nic); details: for EC50: Chikungunya virus, 120 h, read-out: Antiviral Activity, EC50 ± SD, CHIKV; for Activity against CHIKV (in words): concentrations studied up to 100 μM
SARS-CoV-2 = SARS-CoV-2 cytopathic effect (CPE) inhibition test; type: cell-based, strain PIK35; details: for EC50: Severe acute respiratory syndrome coronavirus 2, 120 h, CPE inhibition in Vero cells, 5 days, M ± SD, read-out: Antiviral Activity, EC50 ± SD, SARS-CoV-2; for Activity against SARS-CoV-2 (in words): concentrations studied up to 100 μM
Source text: (§1) The green monkey kidney (Vero) cell line originated from WHO Biologicals, Switzerland (10–87), and the Madin-Darby canine kidney (MDCK) cell line was obtained from the American Type Culture Collection (ATCC CCL-34).
(§2) Viruses and strains used in the present work were severe acute respiratory syndrome-related coronavirus 2 (SARS-CoV-2, strain PIK35, GISAID EPI_ISL_428852), Chikungunya virus (CHIKV, strain Nic, GenBank IDs MN271691-2) and influenza A virus (H1N1, strain A/PR/8/34, ATCC VR-95).
The procedure was described previously. In brief, two-fold dilutions of the compounds were prepared in Dulbecco MEM (Chumakov FSC R&D IBP RAS, Russia) and mixed 1:1 with a virus suspension containing 50–200 TCID50 and incubated for 1 h at 37 °C in a CO2 incubator. The final concentration series started from 100 μM. Then, compound-virus mixtures were added to confluent Vero cell monolayers in 2 replicates. After incubation at 37 °C in a CO2-incubator for 5 days, CPE signs (cell death) were assessed via microscope, and 50% effective concentration (EC50) (compound concentration required to decrease CPE by 50%) was calculated using the Karber method.

IAV = IAV virus yield reduction assay; type: cell-based, influenza A virus (H1N1, strain A/PR/8/34); details: Influenza A virus; virus yield reduction in MDCK cells, MOI 1, 24 h, M ± SD; read-out: Antiviral Activity, EC50 ± SD, IAV
Source text: as §1, §2
Compound solutions were prepared in DMSO (20 mg/mL). The compounds were weighed in 2 mg amounts and dissolved in 100 μL of DMSO. Then, a series of 3-fold dilutions was prepared, starting from 300 µg/mL, in a cultural medium. The MDCK cell monolayer was treated with compound dilutions and incubated for 1 h in a CO2 incubator at 37 °C. Untreated cells were used as negative control. Afterward, the virus was added (MOI 1), and cells were incubated for 24 h at 37 °C in a CO2 incubator. After incubation, the culture medium was collected, and viral yields were determined by titration. In brief, a series of 10-fold dilutions (10^−7–10^−1) of viral supernatants were prepared in a cultural medium and applied to daily MDCK cell monolayers. Infected cells were incubated for 72 h at 37 °C in a CO2 incubator. The presence of the virus in the culture supernatants was determined using the hemagglutination assay with a 1% suspension of chicken erythrocytes. Viral titer was calculated according to the Reed-and-Muench method and was expressed as 50% tissue infectious doses (TID50) per 100 μL of volume. Inhibition (%) was calculated by comparison with non-treated cells, and EC50 was calculated from inhibitory curves.

[1] = Cell viability assay in Vero cells (resazurin); type: cell-based; details: green monkey, 5 d, read-out: Cytotoxicity, CC50 ± SD, Vero
Procedure: as §1
Two-fold dilutions of the compounds (starting from 100 μM) were prepared in DMEM (Chumakov FSC R&D IBP RAS, Russia) and added to confluent cell monolayers. After 5 days of incubation (37 °C, 5% CO2), the cultural supernatant was substituted with a resazurin solution (25 μg/mL), followed by 4 h incubation (37 °C, 5% CO2). Then, 20 µL of 10% SDS were added to stop the reaction. Fluorescence intensity was measured with Promega GloMax-Multi Detection System (Ex525/Em580–640). Cells treated with dilutions of the compounds and DMSO, but not resazurin, were used to subtract the background fluorescence. All experimental procedures were performed in two replicates. Fluorescence curves were analyzed with Microsoft Excel 2013. 50% Cytotoxic concentrations (CC50) were calculated.

[2] = Cell viability assay in MDCK cells (MTT); type: cell-based, canine; details: dog, read-out: Cytotoxicity, CC50 ± SD, MDCK
Procedure: as §1
Compound solutions were prepared in DMSO (20 mg/mL), and then 2-fold dilutions in cultural medium were prepared starting from 1000 μg/mL. One-day MDCK cell monolayers (over 95% confluency) in 96-well plates ([…]) were washed twice with serum-free alpha-MEM (Thermo-Fisher Scientific, USA) and treated with 100 μL of compound dilutions in 2 replicates. The plates were then incubated for 24 h at 37 °C in a CO2 incubator. Cell viability was assessed using the tetrazolium test (MTT, ApplyChem). Optical density was measured on a Wallac 1420 Victor2 microplate reader (Perkin Elmer, Ramsey, MN, USA) at 535 nm, then CC50 values were calculated.

[3] = Solubility in water (photometry); type: physicochemical; details: for solubility at 30 min: thermodynamic from solid
Procedure: The samples were dissolved in DMSO, diluted in series, and photometrically analyzed. The average molar absorption coefficient was calculated from the obtained optical densities of calibration solutions at the absorption maxima. Solubility values were determined as previously described by adding weighed amounts of compounds to distilled water followed by sonication (30 min), centrifugation (12,000 rpm, 10 min), and photometry.

[4] = tested on: influenza A/California/7/09/MA virus; type: in vivo, BALB/c mice
[5] = distilled water, sonication, centrifugation, photometry

SMILES | EC50 (CHIKV; Vero) [µM] | Activity against CHIKV (in words) (CHIKV) | EC50 (SARS-CoV-2) [µM] | Activity against SARS-CoV-2 (in words) (SARS-CoV-2) | EC50 (IAV) [µM] | CC50 at 5 days [1] [µM] | CC50 at 24 h [2] [µM] | EC50 (CHIKV; CPE inhibition in Vero cells, 5 days, M ± SD) [µM] | solubility at 30 min [3, 5] [mM] | Average Life Expectancy (M ± SEM) ([4]; 20 mg/kg intragastric, BALB/c mice) [days] | Protective Index (PI) ([4]; 20 mg/kg intragastric, […]) [%] | Mortality Rate ([4]; mouse, in vivo) [%] | Reduction in body weight (maximum) ([4]; mouse, in vivo) [%] | Solubility in water (in words) [3] | Solubility in Water [3, 5]
CC(C)[C@H](NC(=O)OC(C)(C)C)C(=O)O[C@@H]1[C@@H]2O[Si](C(C)C)(C(C)C)O[Si](C(C)C)(C(C)C)OC[C@H]2O[C@H]1n1cc(C#Cc2ccc3c4cccc5cccc(c6cccc2c63)c54)c(=O)[nH]c1=O [Compound 6, 2′-O-(N-Boc-L-valinyl)-3′,5′-O-(tetraisopropyldisiloxane-1,3-diyl)-5-(perylen-3-ylethynyl)uridine] | > 100 | did not demonstrate any activity | > 100 | did not demonstrate any activity | 31 ± 10 | > 100 | > 100 | – | – | – | – | – | – | – | –
O=c1nc(NO)ccn1[C@@H]1O[C@H](CO)[C@@H](O)[C@H]1O [NHC, N^4-hydroxycytidine, reference compound] | – | – | 7.4 | – | – | > 100 | – | 9.7 | – | – | – | – | – | – | –
CC(C)[Si]1(C(C)C)OC[C@H]2O[C@@H](n3cc(C#Cc4ccc5c6cccc7cccc(c8cccc4c85)c76)c(=O)[nH]c3=O)[C@H](O)[C@@H]2O[Si](C(C)C)(C(C)C)O1 [Compound 5, 3′,5′-O-(Tetraisopropyldisiloxan-1,3-diyl)-5-(perylen-3-ylethynyl)uridine] | 1.17 ± 0.55 | – | > 100 | did not demonstrate any activity | – | > 100 | – | – | – | – | – | – | – | – | –
C[N+]1(CCCn2cc(-c3ccc4c5cccc6cccc(c7cccc3c74)c65)nn2)CCOCC1.[I-] [Compound 3b, 4-Methyl-4-(3-(4-(Perylen-3-yl)-1H-1,2,3-triazol-1-yl)propyl)morpholin-4-ium iodide] | 10.7 ± 2.6 | had activity | 9.2 ± 4.3 | had activity | > 100 | > 100 | > 100 | – | 5 | – | – | – | – | – | –
CC(C)[C@H](NC(=O)OC(C)(C)C)C(=O)O[C@@H]1[C@H](O)[C@@H](CO)O[C@H]1n1cc(C#Cc2ccc3c4cccc5cccc(c6cccc2c63)c54)c(=O)[nH]c1=O [Compound 7, 2′-O-(N-Boc-L-valinyl)-5-(perylen-3-ylethynyl)uridine] | < 0.016 | – | 0.075 ± 0.018 | – | 4.6 ± 1 | 98 ± 17 | 62 ± 24 | – | – | – | – | – | – | – | –
CCOC(=O)C1=C[C@@H](OC(CC)CC)[C@H](NC(C)=O)[C@@H](N)C1 [Tamiflu, Oseltamivir phosphate, reference compound] | – | – | – | – | 0.02 | – | > 100 | – | – | 11.4 ± 1.1 | 56 | 40 | 24.0 | – | –
CC(C)[C@H](N)C(=O)O[C@@H]1[C@H](O)[C@@H](CO)O[C@H]1n1cc(C#Cc2ccc3c4cccc5cccc(c6cccc2c63)c54)c(=O)[nH]c1=O [Compound 8, 2′-O-L-Valinyl-5-(perylen-3-ylethynyl)uridine] | 0.55 ± 0.33 | – | 1.28 ± 0.4 | – | 3.8 ± 1.3 | > 100 | > 100 | – | 0.1 (≈ 61.8 µg/mL) | – | – | – | – | poor | –
c1cc2cccc3c4ccc(-c5cn(CCCN6CCOCC6)nn5)c5cccc(c(c1)c23)c54 [Compound 2b, 4-(3-(4-(Perylen-3-yl)-1H-1,2,3-triazol-1-yl)propyl)morpholine] | > 100 | did not demonstrate any activity | > 100 | did not demonstrate any activity | 62 ± 22 | > 100 | > 100 | – | – | – | – | – | – | – | –
O=c1[nH]c(=O)n([C@@H]2O[C@H](CO)[C@@H](O)[C@@H]2O)cc1C#Cc1ccc2c3cccc4cccc(c5cccc1c52)c43 [aUY11, 5-(Perylen-3-yl)ethynyl-arabino-uridine, reference compound] | – | – | – | – | – | – | – | – | – | – | – | – | – | no solubility | insoluble
C[N+]1(CCn2cc(-c3ccc4c5cccc6cccc(c7cccc3c74)c65)nn2)CCOCC1.[I-] [Compound 3a, 4-Methyl-4-(2-(4-(perylen-3-yl)-1H-1,2,3-triazol-1-yl)ethyl)morpholin-4-ium iodide] | 11.3 ± 9 | – | 1.88 ± 0.88 | – | 49 ± 19 | > 100 | > 100 | – | 3.4 | – | – | – | – | – | –
c1cc2cccc3c4ccc(-c5cn(CCN6CCOCC6)nn5)c5cccc(c(c1)c23)c54 [Compound 2a, 4-(2-(4-(Perylen-3-yl)-1H-1,2,3-triazol-1-yl)ethyl)morpholine] | 0.47 ± 0.16 | – | 11.3 ± 1.8 | – | 20.6 ± 8 | > 100 | > 100 | – | – | – | – | – | – | – | –
